Here are results for one molecule from ChEMBL document CHEMBL5244279, “Perspectives on SARS-CoV-2 Main Protease Inhibitors” (J Med Chem, 2021).

Some results are limits rather than exact numbers.

The test system of one data set is SARS-CoV-2. Description: Antiviral activity against SARS CoV-2 assessed as inhibition of viral growth. Particulars: Severe acute respiratory syndrome coronavirus 2. The class given is functional, organism-based.
Data set [1] can be described thus: Toxicity in rat assessed as median lethal dose. Particulars: in vivo, read-out: MLD.
The target of data set [2] is Replicase polyprotein 1ab (Severe acute respiratory syndrome coronavirus 2, UniProt P0DTD1). Description: Inhibition of SARS CoV-2 Main protease using MCA-AVLQSGFR-Lys(DNP)-Lys-NH2 peptide as substrate by fluorescence based analysis.

Take `O=c1c2ccccc2[se]n1Cc1ccco1`: the EC50 (as a rule, the concentration that produces a half-maximal response) in the data set with SARS-CoV-2 amounted to 4670 nM. The LD50 in data set [1] was above 4600 mg/kg. Further, in data set [2], the midpoint of inhibition, the IC50, lay at 74 nM and affinity was put at a Ki of 31 nM.
